Data taken from PubChem BioAssay AID977612 (Broad Institute, 2014).
Activity calls are given as the source filed them.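 Rule for the calls: active = compounds lowering the signal whose fitted AC50 is at most twice their top tested dose; inconclusive = flat fit with 30 to 70% inhibition, or poor fit; inactive = the rest.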

biological target: Drosophila melanogaster bursicon receptor (rickets, LGR2); assay: inhibitors of bursicon-driven CRE reporter signaling – cell-based, HEK293, CRE-luciferase, luminescence, dry powder, dose response (AID 977612); settings: bursicon-stimulated, antagonist luminescence

| SMILES | AC50 |
| --- | --- |
| C[C@@H]1CN([C@@H](C)CO)C(=O)c2cc(NC(=O)C3CCCCC3)ccc2O[C@@H](C)CCCCO[C@H]1CN(C)C(=O)Nc1cccc2ccccc12 | > 70 µM (inactive) |
| C[C@H](CO)N1C[C@H](C)[C@H](CN(C)C(=O)Nc2ccccc2)OCCCC[C@H](C)Oc2ccc(NC(=O)C3CCCCC3)cc2C1=O | 12.6 µM |
| C[C@H](CO)N1C[C@H](C)[C@H](CN(C)C(=O)Nc2cccc3ccccc23)OCCCC[C@H](C)Oc2ccc(NC(=O)c3ccccc3)cc2C1=O | 22.8 µM |
| C[C@H](CO)N1C[C@H](C)[C@H](CN(C)C(=O)Nc2ccccc2)OCCCC[C@H](C)Oc2ccc(NC(=O)CCC(F)(F)F)cc2C1=O | 36.3 µM |
| C[C@H](CO)N1C[C@H](C)[C@H](CN(C)C(=O)Nc2ccc3c(c2)OCO3)OCCCC[C@H](C)Oc2ccc(NC(=O)NC3CCCCC3)cc2C1=O | 31 µM |
| C[C@H](CO)N1C[C@H](C)[C@H](CN(C)C(=O)Nc2ccc(C(F)(F)F)cc2)OCCCC[C@H](C)Oc2ccc(NC(=O)CCC(F)(F)F)cc2C1=O | 15 µM |
| C[C@H](CO)N1C[C@H](C)[C@H](CN(C)C(=O)Nc2ccc(F)cc2)OCCCC[C@H](C)Oc2ccc(NC(=O)C3CCCCC3)cc2C1=O | 6.2 µM |
| C[C@H](CO)N1C[C@H](C)[C@H](CN(C)C(=O)Nc2cccc3ccccc23)OCCCC[C@H](C)Oc2ccc(NC(=O)NC3CCCCC3)cc2C1=O | 23.2 µM |
| C[C@@H]1CN([C@H](C)CO)C(=O)c2cc(NC(=O)C3CCCCC3)ccc2O[C@@H](C)CCCCO[C@@H]1CN(C)C(=O)Nc1cccc2ccccc12 | > 70 µM (inactive) |
| C[C@H](CO)N1C[C@H](C)[C@H](CN(C)C(=O)Nc2ccc(F)cc2)OCCCC[C@H](C)Oc2ccc(NC(=O)NC3CCCCC3)cc2C1=O | 21.4 µM |
| C[C@H]1CCCCO[C@@H](CN(C)C(=O)Nc2ccc(C(F)(F)F)cc2)[C@@H](C)CN([C@@H](C)CO)C(=O)c2cc(NC(=O)CCC(F)(F)F)ccc2O1 | 31.7 µM |
| C[C@@H]1CN([C@H](C)CO)C(=O)c2cc(NC(=O)C3CCCCC3)ccc2O[C@@H](C)CCCCO[C@H]1CN(C)C(=O)Nc1cccc2ccccc12 | > 70 µM (inactive) |
| C[C@@H]1CCCCO[C@@H](CN(C)C(=O)Nc2cccc3ccccc23)[C@@H](C)CN([C@@H](C)CO)C(=O)c2cc(NC(=O)C3CCCCC3)ccc2O1 | > 70 µM (inactive) |
| C[C@H](CO)N1C[C@H](C)[C@H](CN(C)C(=O)Nc2cccc3ccccc23)OCCCC[C@H](C)Oc2ccc(NC(=O)CCC(F)(F)F)cc2C1=O | 13.1 µM |
| COc1ccc(NC(=O)N(C)C[C@@H]2OCCCC[C@H](C)Oc3ccc(NC(=O)C4CCCCC4)cc3C(=O)N([C@H](C)CO)C[C@@H]2C)cc1 | 10.1 µM |
| COc1ccc(S(=O)(=O)N(C)C[C@@H]2OCCCC[C@H](C)Oc3ccc(NS(=O)(=O)c4ccc(Cl)cc4)cc3C(=O)N([C@@H](C)CO)C[C@@H]2C)cc1 | 19.1 µM |
| C[C@H](CO)N1C[C@H](C)[C@H](CN(C)C(=O)Nc2ccc3c(c2)OCO3)OCCCC[C@H](C)Oc2ccc(NC(=O)C3CCCCC3)cc2C1=O | 10.5 µM |
| COc1ccc(NC(=O)N(C)C[C@@H]2OCCCC[C@H](C)Oc3ccc(NC(=O)NC4CCCCC4)cc3C(=O)N([C@H](C)CO)C[C@@H]2C)cc1 | 30.8 µM |
| C[C@@H]1CCCCO[C@H](CN(C)C(=O)Nc2cccc3ccccc23)[C@@H](C)CN([C@@H](C)CO)C(=O)c2cc(NC(=O)C3CCCCC3)ccc2O1 | > 70 µM (inactive) |
| C[C@H]1CCCCO[C@@H](CN(C)C(=O)Nc2ccc(F)cc2)[C@@H](C)CN([C@@H](C)CO)C(=O)c2cc(NC(=O)C3CCCCC3)ccc2O1 | 11.4 µM |
| C[C@H](CO)N1C[C@H](C)[C@H](CN(C)C(=O)Nc2ccccc2)OCCCC[C@H](C)Oc2ccc(NC(=O)NC3CCCCC3)cc2C1=O | 20.9 µM |

same assay, conditions: bursicon-stimulated, antagonist luminescence, at 35 µM (top of the series)

| SMILES | activity change, negative = inhibition |
| --- | --- |
| C[C@H]1CCCCO[C@@H](CN(C)S(=O)(=O)c2ccc(Cl)cc2)[C@@H](C)CN([C@@H](C)CO)C(=O)c2cc(NC(=O)NC3CCCCC3)ccc2O1 | inactive |
| C[C@H](CO)N1C[C@H](C)[C@@H](CN(C)C(=O)Nc2cccc3ccccc23)OCCCC[C@H](C)Oc2ccc(NC(=O)C3CCCCC3)cc2C1=O | inactive |
| C[C@@H]1CCCCO[C@H](CN(C)C(=O)Nc2cccc3ccccc23)[C@H](C)CN([C@H](C)CO)C(=O)c2cc(NC(=O)C3CCCCC3)ccc2O1 | inactive |
| C[C@@H]1CCCCO[C@H](CN(C)C(=O)Nc2cccc3ccccc23)[C@@H](C)CN([C@H](C)CO)C(=O)c2cc(NC(=O)C3CCCCC3)ccc2O1 | inactive |
| C[C@H](CO)N1C[C@H](C)[C@H](CN(C)C(=O)Nc2ccc(F)cc2)OCCCC[C@H](C)Oc2ccc(NC(=O)C3CC3)cc2C1=O | inactive |
| C[C@H](CO)N1C[C@H](C)[C@H](CN(C)C(=O)Nc2ccc(F)cc2)OCCCC[C@H](C)Oc2ccc(NC(=O)C3CCOCC3)cc2C1=O | inactive |
| C[C@H]1CCCCO[C@H](CN(C)C(=O)Nc2cccc3ccccc23)[C@@H](C)CN([C@@H](C)CO)C(=O)c2cc(NC(=O)C3CCCCC3)ccc2O1 | inactive |
| CC(C)(C)c1ccc(-c2nc(-c3ccncc3)no2)cc1 | inactive |
| C[C@@H]1CCCCO[C@@H](CN(C)C(=O)Nc2cccc3ccccc23)[C@H](C)CN([C@@H](C)CO)C(=O)c2cc(NC(=O)C3CCCCC3)ccc2O1 | inactive |
| C[C@@H]1CCCCO[C@@H](CN(C)C(=O)Nc2cccc3ccccc23)[C@@H](C)CN([C@H](C)CO)C(=O)c2cc(NC(=O)C3CCCCC3)ccc2O1 | inactive |
| C[C@@H]1CN([C@@H](C)CO)C(=O)c2cc(NC(=O)C3CCCCC3)ccc2O[C@@H](C)CCCCO[C@@H]1CN(C)C(=O)Nc1cccc2ccccc12 | inactive |
| C[C@@H]1CCCCO[C@H](CN(C)C(=O)Nc2cccc3ccccc23)[C@H](C)CN([C@@H](C)CO)C(=O)c2cc(NC(=O)C3CCCCC3)ccc2O1 | inactive |
| C[C@@H]1CCCCO[C@@H](CN(C)C(=O)Nc2cccc3ccccc23)[C@H](C)CN([C@H](C)CO)C(=O)c2cc(NC(=O)C3CCCCC3)ccc2O1 | inactive |
| CC(=O)Nc1ccc2c(c1)C(=O)N([C@H](C)CO)C[C@H](C)[C@H](CN(C)C(=O)Nc1ccc(F)cc1)OCCCC[C@H](C)O2 | inactive |
